Laboratory results taken from patent US12606594B2, “Heterotandem bicyclic peptide complexes” (BicycleTx Limited, priority 2019, dated 2026).
Where “and” joins values, the source holds several entries; their conditions need not be identical. Equal values may be shown once. Read-outs that look alike come from different tables or passages of the source. Starred links: 1 amine or outer side, 2 acyl side, 3 side chain; linkers in the order of their positions; H or OH if unused. Positions of bridges follow the written chain, without caps; N, C: chain ends. Non-standard residues stand in square brackets, D forms with d. Chains are numbered I, II in the order given. X1 = O=C(CCOCCOCCOCCN(CCOCCOCCOCCn1cc(CCC(=O)[*:2])nn1)CCOCCOCCOCCn1cc(CCC(=O)[*:3])nn1)[*:1]; TATA = O=C(CC[*:1])N1CN(C(=O)CC[*:2])CN(C(=O)CC[*:3])C1; d1Nal = N[C@H](Cc1cccc2ccccc12)C(=O)O; Hyp = O=C(O)[C@@H]1C[C@@H](O)CN1; hArg = N=C(N)NCCCC[C@H](N)C(=O)O; tBuAla = CC(C)(C)C[C@H](N)C(=O)O; Nle = CCCC[C@H](N)C(=O)O

Experiments:
[1] = Pharmacokinetics of BCY13272 in SD rats; type: in vivo; details: 3.6 mg/kg IV infusion (15 min)
Method: Male SD Rats were dosed with heterotandem complex BCY13272 formulated in 25 mM Histidine HCl, 10% sucrose pH 7 by IV bolus or IV infusion (15 minutes). Serial bleeding (about 80 μL blood/time point) was performed via submandibular or saphenous vein at each time point. All blood samples were immediately transferred into prechilled microcentrifuge tubes containing 2 μL K2-EDTA (0.5M) as anti-coagulant and placed on wet ice. Blood samples were immediately processed for plasma by centrifugation at approximately 4° C., 3000 g. The precipitant including internal standard was immediately added into the plasma, mixed well and centrifuged at 12,000 rpm, 4° C. for 10 minutes. The supernatant was transferred into pre-labeled polypropylene microcentrifuge tubes, and then quick-frozen over dry ice. The samples were stored at […] or below as needed until analysis. 7.5 μL of the supernatant samples were directly injected for LC-MS/MS analysis using an Orbitrap Q Exactive in positive ion mode to determine the concentrations of analyte. Plasma concentration versus time data were analyzed by non-compartmental approaches using the Phoenix WinNonlin 6.3 software program. CO, Cl, Vdss, T½, AUC(0-last), AUC(0-inf), MRT(0-last), MRT(0-inf) and graphs of plasma concentration versus time profile were reported.

CD137 = CD137 reporter assay co-culture with tumor cells (Promega CD137 luciferase reporter, Jurkat cells); type: cell-based
Method: (§1) Culture medium, referred to as R1 media, is prepared by adding 1% FBS to RPMI-1640 (component of Promega kit CS196005). Serial dilutions of test articles in R1 are prepared in a sterile 96 well-plate. Add 25 μL per well of test articles or R1 (as a background control) to designated wells in a white cell culture plate. Tumor cells* are harvested and resuspended at a concentration of 400,000 cells/mL in R1 media. Twenty five (25) μL/well of tumor cells are added to the white cell culture plate. Jurkat cells (Promega kit CS196005, 0.5 mL) are thawed in the water bath and then added to 5 ml pre-warmed R1 media. Twenty five (25) […] of Jurkat cells are then added to the white cell culture plate. Incubate the cells and test articles for 6 h at 37° C., 5% CO2. At the end of 6 h, add 75 µL/well Bio-Glo™ reagent (Promega) and incubate for 10 min before reading luminescence in a plate reader (Clariostar, BMG). The fold change relative to cells alone (Jurkat cells+Cell line used in co-culture) is calculated and plotted in GraphPad Prism as log(agonist) vs response to determine EC50 (nM) and Fold Induction over background (Max).
(§2) The tumor cell types used in co-culture for EphA2 are A549, PC-3 and HT29.

[2] = as above; type: cell-based; details: read-out: Emax (Fold Induction over background)
Method: as §1, §2

With “I: A[hArg]DC[Hyp]LVNPLCLEP[d1Nal]WTC-NH2 / II: Ac-C[tBuAla]PE[dK]PYCFADPY[Nle]CA-NH2 / III: Ac-C[tBuAla]PE[dK]PYCFADPY[Nle]CA-NH2 (linker I:4-I:11-I:18, II:1-II:8-II:15, III:1-III:8-III:15 via TATA (inferred); linker I:N-II:5-III:5 via X1 (inferred)) [BCY13272]” the “T½ (terminal half-life)” value ([1]; 3.6 mg/kg) was 2.9 h, the clearance ([1]; rat, in vivo, read-out: Clp (clearance)) was 7.4 mL/min/kg and the “Emax (Fold Induction over background)” value (CD137; EphA2 cell line A549) was 23.6 and 30.2. The “Emax (Fold Induction over background)” value (CD137; EphA2 cell line HT-29) was 26 and 36.4, the “Emax (Fold Induction over background)” value (CD137; EphA2 cell line PC-3) was 53 and 44.5 and the fold induction ([2]; EphA2 cell line A549) was 25.7. For the same substance, the fold induction ([2]; EphA2 cell line HT-29) was 36.5 and the fold induction ([2]; EphA2 cell line PC-3) was 44.2.
